Data reported in BigSolDB 2.1.

O=C(O)c1cc(O)c(O)c(O)c1
solubility (mole fraction)
Details | 293.15 K | 298.15 K | 303.15 K | 308.15 K | 313.15 K | 318.15 K
in methanol | 0.0639 | 0.0672 | 0.07 | 0.0721 | 0.0755 | 0.0768
in water | 0.00101 | 0.00135 | 0.00171 | 0.00227 | 0.00289 | 0.0038
